From ChEMBL document CHEMBL5214923, “Contemporary mTOR inhibitor scaffolds to diseases breakdown: A patent review (2015-2021)” (Eur J Med Chem, 2022)
One block for each compound: values may come before it.

Tests used:
[1] = target: PI3-kinase p110-alpha/p85-alpha (Homo sapiens, UniProt P42336); assay: Inhibition of PI3K p110alpha/p85alpha (unknown origin) using PIP2 as substrate preincubated for 15 mins followed by substrate addition measured after 1 hr in presence of ATP by TR-FRET assay; assay type: protein-complex assay
Sequence of PI3-kinase p110-alpha/p85-alpha (P27986 whole entry): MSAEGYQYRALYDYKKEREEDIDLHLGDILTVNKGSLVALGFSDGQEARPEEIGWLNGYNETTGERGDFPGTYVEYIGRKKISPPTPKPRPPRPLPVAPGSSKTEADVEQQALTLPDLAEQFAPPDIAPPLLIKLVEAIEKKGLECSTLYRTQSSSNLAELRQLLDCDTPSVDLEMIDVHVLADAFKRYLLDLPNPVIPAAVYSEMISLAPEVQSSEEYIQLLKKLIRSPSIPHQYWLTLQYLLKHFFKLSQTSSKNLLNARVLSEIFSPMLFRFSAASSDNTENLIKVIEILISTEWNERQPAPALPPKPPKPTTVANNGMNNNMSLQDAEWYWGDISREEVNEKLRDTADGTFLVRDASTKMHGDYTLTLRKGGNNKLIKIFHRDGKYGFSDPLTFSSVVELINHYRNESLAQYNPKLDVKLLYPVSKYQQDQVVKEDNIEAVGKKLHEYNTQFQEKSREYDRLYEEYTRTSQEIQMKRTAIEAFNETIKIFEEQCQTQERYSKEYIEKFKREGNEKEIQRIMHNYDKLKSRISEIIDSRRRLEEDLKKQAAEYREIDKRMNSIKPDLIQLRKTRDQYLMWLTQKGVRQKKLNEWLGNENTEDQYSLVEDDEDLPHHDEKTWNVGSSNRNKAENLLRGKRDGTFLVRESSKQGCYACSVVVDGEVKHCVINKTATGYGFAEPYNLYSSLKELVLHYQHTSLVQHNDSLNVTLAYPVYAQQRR
Sequence of PI3-kinase p110-alpha/p85-alpha (P42336 whole entry): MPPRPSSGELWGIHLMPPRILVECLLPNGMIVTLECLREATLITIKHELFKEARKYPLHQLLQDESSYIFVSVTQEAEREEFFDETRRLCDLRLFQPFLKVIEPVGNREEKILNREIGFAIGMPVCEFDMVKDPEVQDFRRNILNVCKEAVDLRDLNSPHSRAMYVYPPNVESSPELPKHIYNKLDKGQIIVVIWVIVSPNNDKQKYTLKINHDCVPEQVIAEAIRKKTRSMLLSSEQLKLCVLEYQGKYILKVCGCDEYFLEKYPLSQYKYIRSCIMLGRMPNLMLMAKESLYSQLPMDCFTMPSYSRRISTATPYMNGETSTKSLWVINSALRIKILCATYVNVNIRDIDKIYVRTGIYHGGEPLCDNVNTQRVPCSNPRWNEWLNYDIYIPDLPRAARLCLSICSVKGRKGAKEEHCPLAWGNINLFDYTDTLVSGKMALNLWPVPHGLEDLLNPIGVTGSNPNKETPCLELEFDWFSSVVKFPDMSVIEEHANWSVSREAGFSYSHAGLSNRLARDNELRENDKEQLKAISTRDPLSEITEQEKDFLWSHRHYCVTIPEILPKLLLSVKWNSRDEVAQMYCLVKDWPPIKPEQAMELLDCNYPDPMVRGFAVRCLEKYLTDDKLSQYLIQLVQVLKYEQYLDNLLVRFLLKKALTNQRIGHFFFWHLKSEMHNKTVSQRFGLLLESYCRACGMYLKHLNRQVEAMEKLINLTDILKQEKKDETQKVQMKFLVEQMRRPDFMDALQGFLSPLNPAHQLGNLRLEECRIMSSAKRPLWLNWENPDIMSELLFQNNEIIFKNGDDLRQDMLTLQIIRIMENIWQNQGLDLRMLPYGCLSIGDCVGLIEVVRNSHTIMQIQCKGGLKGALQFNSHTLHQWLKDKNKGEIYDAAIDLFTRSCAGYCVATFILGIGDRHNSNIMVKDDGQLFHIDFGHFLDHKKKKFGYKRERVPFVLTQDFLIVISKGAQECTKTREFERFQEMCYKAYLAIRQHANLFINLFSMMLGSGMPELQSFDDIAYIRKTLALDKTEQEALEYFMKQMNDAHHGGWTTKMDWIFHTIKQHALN

[2] = target: T1, Serine/threonine-protein kinase mTOR (Homo sapiens, UniProt P42345); assay: Inhibition of recombinant mTOR (unknown origin) using GFP-4E-BP1 as substrate preincubated for 15 mins followed by substrate addition measured after 1 hr by TR-FRET assay
[3] = target: T2, Phosphatidylinositol 4,5-bisphosphate 3-kinase catalytic subunit delta isoform (Homo sapiens, UniProt O00329); assay: Inhibition of human PI3Kdelta preincubated for 15 mins followed by ATP addition measured after 1 hr by TR-FRET assay
T2 sequence (O00329 whole entry): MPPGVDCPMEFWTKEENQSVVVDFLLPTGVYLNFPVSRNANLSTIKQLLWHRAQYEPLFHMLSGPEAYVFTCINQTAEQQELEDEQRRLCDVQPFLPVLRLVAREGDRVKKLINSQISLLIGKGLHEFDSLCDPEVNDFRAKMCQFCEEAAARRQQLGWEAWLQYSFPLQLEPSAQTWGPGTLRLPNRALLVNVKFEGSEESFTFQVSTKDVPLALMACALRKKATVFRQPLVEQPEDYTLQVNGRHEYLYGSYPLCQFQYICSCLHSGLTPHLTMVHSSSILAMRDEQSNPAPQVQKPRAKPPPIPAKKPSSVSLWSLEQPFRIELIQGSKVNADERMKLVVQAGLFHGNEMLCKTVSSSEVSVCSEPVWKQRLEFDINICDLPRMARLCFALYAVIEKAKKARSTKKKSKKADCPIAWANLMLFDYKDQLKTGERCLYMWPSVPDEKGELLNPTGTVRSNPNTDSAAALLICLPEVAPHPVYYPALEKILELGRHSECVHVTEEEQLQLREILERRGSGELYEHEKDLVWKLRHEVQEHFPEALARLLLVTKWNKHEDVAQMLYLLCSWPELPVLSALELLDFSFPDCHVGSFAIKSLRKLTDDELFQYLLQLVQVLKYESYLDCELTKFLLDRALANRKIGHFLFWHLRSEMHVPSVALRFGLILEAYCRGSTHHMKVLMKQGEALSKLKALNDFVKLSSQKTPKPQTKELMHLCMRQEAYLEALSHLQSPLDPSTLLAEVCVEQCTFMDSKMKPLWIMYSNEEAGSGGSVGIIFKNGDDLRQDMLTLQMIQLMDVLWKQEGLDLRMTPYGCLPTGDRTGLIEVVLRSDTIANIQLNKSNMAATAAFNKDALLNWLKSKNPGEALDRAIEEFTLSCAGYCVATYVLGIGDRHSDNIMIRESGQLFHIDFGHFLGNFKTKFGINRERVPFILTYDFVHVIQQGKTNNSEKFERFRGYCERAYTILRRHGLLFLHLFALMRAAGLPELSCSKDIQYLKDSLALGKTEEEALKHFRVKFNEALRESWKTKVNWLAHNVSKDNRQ

[4] = target: Phosphatidylinositol 4,5-bisphosphate 3-kinase catalytic subunit alpha isoform (Homo sapiens, UniProt P42336); assay: Inhibition of human PI3Kalpha preincubated for 15 mins followed by ATP addition measured after 1 hr by TR-FRET assay
Sequence of Phosphatidylinositol 4,5-bisphosphate 3-kinase catalytic subunit alpha isoform (P42336 whole entry, canonical isoform): as the sequence (P42336 whole entry) above

[5] = target: Phosphatidylinositol 4,5-bisphosphate 3-kinase catalytic subunit gamma isoform (Homo sapiens, UniProt P48736); assay: Inhibition of human PI3Kgamma preincubated for 15 mins followed by ATP addition measured after 1 hr by TR-FRET assay
Sequence of Phosphatidylinositol 4,5-bisphosphate 3-kinase catalytic subunit gamma isoform (P48736 whole entry, canonical isoform): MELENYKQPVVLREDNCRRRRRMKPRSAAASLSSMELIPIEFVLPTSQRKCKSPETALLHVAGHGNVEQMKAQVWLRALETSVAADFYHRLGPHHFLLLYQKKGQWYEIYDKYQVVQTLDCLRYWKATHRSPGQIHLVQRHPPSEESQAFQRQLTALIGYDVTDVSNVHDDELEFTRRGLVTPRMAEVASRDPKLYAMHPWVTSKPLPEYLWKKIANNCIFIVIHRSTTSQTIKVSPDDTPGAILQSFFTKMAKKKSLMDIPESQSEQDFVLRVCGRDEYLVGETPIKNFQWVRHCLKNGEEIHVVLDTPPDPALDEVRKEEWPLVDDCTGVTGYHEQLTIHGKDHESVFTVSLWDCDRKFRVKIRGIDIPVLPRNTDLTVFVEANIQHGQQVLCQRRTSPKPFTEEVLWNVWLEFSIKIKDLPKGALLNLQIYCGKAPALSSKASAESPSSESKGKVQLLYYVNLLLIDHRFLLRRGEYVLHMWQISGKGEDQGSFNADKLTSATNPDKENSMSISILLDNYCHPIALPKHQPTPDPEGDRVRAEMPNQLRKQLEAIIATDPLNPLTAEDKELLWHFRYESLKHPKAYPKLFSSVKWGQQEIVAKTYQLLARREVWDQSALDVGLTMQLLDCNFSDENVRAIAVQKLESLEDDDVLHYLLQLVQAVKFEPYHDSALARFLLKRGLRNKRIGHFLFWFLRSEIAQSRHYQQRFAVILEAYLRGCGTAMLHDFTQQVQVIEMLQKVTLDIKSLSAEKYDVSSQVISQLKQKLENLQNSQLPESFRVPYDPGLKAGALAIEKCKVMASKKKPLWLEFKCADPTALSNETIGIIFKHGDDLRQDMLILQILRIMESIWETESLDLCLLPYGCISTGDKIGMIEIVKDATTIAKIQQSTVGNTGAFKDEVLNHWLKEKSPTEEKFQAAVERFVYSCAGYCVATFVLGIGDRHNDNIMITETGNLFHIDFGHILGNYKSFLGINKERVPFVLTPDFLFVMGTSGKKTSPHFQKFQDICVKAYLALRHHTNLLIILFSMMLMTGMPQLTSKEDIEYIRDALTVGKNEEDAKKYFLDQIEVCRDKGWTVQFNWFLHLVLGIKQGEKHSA

mTORC1 [6] = target: T3, mTORC1 (Homo sapiens, UniProt P42345+Q8N122+Q9BVC4); assay: Inhibition of mTORC1 (unknown origin); assay type: protein-complex assay
A549 = assay: Antitumor activity against human A549 cells assessed as cell growth inhibition incubated for 72 hrs by Cell Titer-Glo assay; assay type: functional, cell-based; conditions: A549, 72 h
[7] = Solubility of the compound in water; assay type: physicochemical
mTORC1 [8] = target: T3, mTORC1; assay: Inhibition of mTORC1 (unknown origin) assessed as measuring phosphorylated p7OS6K level at 0.2 uM relative to control; assay type: protein-complex assay
mTORC2 (Homo sapiens) = mTORC2 (Homo sapiens) (UniProt P42345+Q6R327+Q9BVC4+Q9BPZ7); assay: Inhibition of mTORC2 (unknown origin) assessed as measuring phosphorylated AKT at 0.5 uM relative to control; assay type: protein-complex assay
mTORC1 [9] = target: T3, mTORC1; assay: Inhibition of mTORC1 (unknown origin) assessed as measuring phosphorylated 4EBP1 level at 1 uM relative to control; assay type: protein-complex assay
[10] = target: T1, Serine/threonine-protein kinase mTOR; assay: Inhibition of mTOR (unknown origin) assessed as residual activity at 30 nM relative to control; values are per cent of control
[11] = target: T1, Serine/threonine-protein kinase mTOR; assay: Inhibition of human mTOR assessed as measuring phosphorylated p70S6K level by TR-FRET assay
mTORC1 [12] = target: T3, mTORC1; assay: Inhibition of mTORC1 in human PC-3 cells assessed as measuring phosphorylated S6K level incubated for 24 hrs by AlphaLISA assay; assay type: cell-based
mTORC2 = mTORC2 (Homo sapiens, UniProt P42345+Q6R327+Q9BPZ7+Q9BVC4); assay: Inhibition of mTORC2 in human PC-3 cells assessed as measuring phosphorylated Akt level incubated for 24 hrs by AlphaLISA assay; assay type: cell-based

inhibition (mTORC1 [8]): 89.9%
inhibition (mTORC2 (Homo sapiens)): 89%
inhibition (mTORC1 [9]): 62%
SMILES: CNC(=O)c1cccc(-c2ccc3c(N4CCOC[C@@H]4C)nc(N4CCO[C@@H]5CCC[C@@H]54)nc3n2)c1

IC50 [3]: 10 nM
IC50 [4]: 100 nM
IC50 [5]: 10 nM
IC50 (mTORC1 [6]): < 5 nM
SMILES: COc1cccc2cc(-c3nn(C4CCOCC4)c4ncnc(N)c34)[nH]c12

IC50 [11]: < 100 nM
SMILES: C[C@H]1COCCN1c1cc(N2CCOC[C@@H]2C)c2ccc(-c3ccc(CNCCO)cc3)nc2n1

IC50 [11]: < 100 nM
SMILES: COc1ccc(-c2ccc3c(N4CCOC[C@@H]4C)nc(N4CCOC[C@@H]4C)cc3n2)cc1CO

inhibition (mTORC1 [8]): 87.7%
inhibition (mTORC2 (Homo sapiens)): 73.9%
inhibition (mTORC1 [9]): 83.8%
SMILES: CNC(=O)c1cccc(-c2ccc3c(N4CCOC[C@@H]4C)nc(N4CCOC[C@@H]4C)nc3n2)c1

More lines, now with the values behind:

SMILES: CN(C)C(=O)C1CCC(Oc2nc(-c3ccc(N)nc3)nc(N3CCOCC3)n2)CC1 (stereo not drawn)
IC50 [1]: < 1000 nM
IC50 [2]: < 1000 nM

SMILES: CC(=O)N1CCC(n2nc(-c3cc4cc(O)cc(Cl)c4[nH]3)c3c(N)ncnc32)CC1
IC50 [3]: 10 nM
IC50 [4]: 100 nM
IC50 [5]: 50 nM
IC50 (mTORC1 [6]): < 5 nM

SMILES: CO[C@@H]1C[C@@H]2CC[C@@H](C)[C@@](O)(O2)C(=O)C(=O)N2CCCC[C@H]2C(=O)O[C@H]([C@H](C)C[C@@H]2CC[C@@H](OC(=O)C[n+]3csc(C)c3C)[C@H](OC)C2)CC(=O)[C@H](C)/C=C(\C)[C@@H](OC(=O)C[n+]2csc(C)c2C)[C@@H](OC)C(=O)[C@H](C)C[C@H](C)/C=C/C=C/C=C/1C.[Br-].[Br-]
IC50 (A549): 6230 nM
solubility [7]: 100 mg/mL

SMILES: CC(C)n1nc(-c2cc3cccc(O)c3[nH]2)c2c(N)ncnc21
IC50 [3]: 100 nM
IC50 [5]: 100 nM
IC50 (mTORC1 [6]): < 5 nM

SMILES: CC(C)(C#N)c1ccc(-n2c3c4cc(-c5ccc(NC(=O)CNC6CCCCC6)nc5)ccc4ncc3n3cnnc23)cc1
residual activity [10]: < 5%

SMILES: CO[C@@H]1C[C@H](C[C@@H](C)[C@@H]2CC(=O)[C@H](C)/C=C(\C)[C@@H](O)[C@@H](OC)C(=O)[C@H](C)C[C@H](C)/C=C/C=C/C=C(\C)C(OCCO)C[C@@H]3CC[C@@H](C)[C@@](O)(O3)C(=O)C(=O)N3CCCC[C@H]3C(=O)O2)CC[C@H]1OCCCN1CCOC(C)(C)C1 (stereo partly drawn)
IC50 (mTORC1 [12]): < 0.316 nM
IC50 (mTORC2): > 10000 nM

SMILES: CO[C@@H]1C[C@H](C[C@@H](C)[C@@H]2CC(=O)[C@H](C)/C=C(\C)[C@@H](O)[C@@H](OC)C(=O)[C@H](C)C[C@H](C)/C=C/C=C/C=C(\C)C(OCCO)C[C@@H]3CC[C@@H](C)[C@@](O)(O3)C(=O)C(=O)N3CCCC[C@H]3C(=O)O2)CC[C@H]1OCCCN1CCOC[C@H]1C (stereo partly drawn)
IC50 (mTORC1 [12]): < 0.316 nM
IC50 (mTORC2): > 10000 nM

SMILES: CC(C)n1nc(-c2cc3cc(O)cc(F)c3[nH]2)c2c(N)ncnc21
IC50 [3]: 50 nM
IC50 [5]: 100 nM
IC50 (mTORC1 [6]): < 5 nM

SMILES: CO[C@@H]1C[C@@H]2CC[C@@H](C)[C@@](O)(O2)C(=O)C(=O)N2CCCC[C@H]2C(=O)O[C@H]([C@H](C)C[C@@H]2CC[C@@H](OC(=O)C[n+]3csc(C)c3C)[C@H](OC)C2)CC(=O)[C@H](C)/C=C(\C)[C@@H](O)[C@@H](OC)C(=O)[C@H](C)C[C@H](C)/C=C/C=C/C=C/1C.[Br-]
IC50 (A549): 7400 nM
solubility [7]: 4.2 mg/mL
